Values quoted from earlier work as cited in EP0530832A1, “Method for processing a silver halide color photographic light-sensitive material” (KONICA CORPORATION, priority 1991, dated 1993).

Tested on: rats
Settings: rats in an environment containing 15 ppm of formalin

For `C=O` [formalin], the nasal cancers is given as “developed nasal cancers”.
